18 compounds from patent US20060173015A1, “Cyclohexyldiamines as selective alpha 1a/1d adrenoreceptor antagonists for the treatment of benign prostatic hypertrophy and lower urinary tract symptoms” (priority 2004, published 2006) can be followed below.

Structures can show the parent of a compound that is named as a salt.

One series has as its target T1, α1a-AR (Homo sapiens, UniProt P35348).
T1 construct: expressed in transfected cells; host or cells: COS-7
T1 sequence (P35348 1-466): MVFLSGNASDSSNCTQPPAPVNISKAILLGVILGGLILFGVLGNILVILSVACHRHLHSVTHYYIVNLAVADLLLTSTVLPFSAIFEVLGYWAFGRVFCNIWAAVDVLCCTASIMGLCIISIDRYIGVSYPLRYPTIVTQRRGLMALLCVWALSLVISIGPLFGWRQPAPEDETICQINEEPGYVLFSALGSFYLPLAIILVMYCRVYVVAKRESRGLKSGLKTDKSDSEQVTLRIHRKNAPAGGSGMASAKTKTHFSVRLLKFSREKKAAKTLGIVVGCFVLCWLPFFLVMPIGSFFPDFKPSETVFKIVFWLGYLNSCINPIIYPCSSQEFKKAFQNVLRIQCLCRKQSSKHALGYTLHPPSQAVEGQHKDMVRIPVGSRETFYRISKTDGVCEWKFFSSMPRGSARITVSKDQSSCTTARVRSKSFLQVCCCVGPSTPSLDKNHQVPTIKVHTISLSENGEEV
As to the kind of experiment: α1-Adrenergic receptor radio-ligand (125I-HEAT) binding assay, α1a subtype. To be noted: COS-7 cell membranes, 125I-HEAT. The method, boiled down:
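Membranes from COS-7 cells transfected with the α1a-AR were incubated with 50 pM final ¹²⁵I-HEAT and test compound (1 pM–10 μM final, half-log steps) in Tris/EDTA/NaCl buffer pH 7.4 for 1 hr at rt. Bound radioactivity was counted after GF/C filtration, in triplicate.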

The target of another series is T2, α1d-AR (Homo sapiens, UniProt P25100).
T2 construct: expressed in transfected cells; host or cells: COS-7
T2 sequence (P25100 1-572): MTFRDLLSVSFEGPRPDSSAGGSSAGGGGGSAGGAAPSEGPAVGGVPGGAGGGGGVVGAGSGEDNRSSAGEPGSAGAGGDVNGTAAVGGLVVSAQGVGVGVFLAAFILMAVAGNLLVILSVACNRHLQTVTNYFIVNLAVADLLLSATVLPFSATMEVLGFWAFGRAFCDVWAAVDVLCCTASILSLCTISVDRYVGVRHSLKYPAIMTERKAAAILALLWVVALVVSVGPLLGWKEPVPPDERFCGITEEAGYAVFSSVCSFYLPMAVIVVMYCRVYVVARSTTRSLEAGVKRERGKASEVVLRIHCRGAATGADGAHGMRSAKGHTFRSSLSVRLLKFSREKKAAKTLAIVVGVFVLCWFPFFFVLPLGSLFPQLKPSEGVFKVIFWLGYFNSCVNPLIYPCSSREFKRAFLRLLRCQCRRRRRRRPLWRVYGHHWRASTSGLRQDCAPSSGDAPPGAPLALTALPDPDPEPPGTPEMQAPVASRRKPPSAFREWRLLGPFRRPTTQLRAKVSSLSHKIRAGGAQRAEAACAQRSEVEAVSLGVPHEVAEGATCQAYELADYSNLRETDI
The series is described as follows: α1-Adrenergic receptor radio-ligand (125I-HEAT) binding assay, α1d subtype. To be noted: COS-7 cell membranes, 125I-HEAT; read-out: Receptor Binding, Ki α1d-AR.

The target of a further series is T3, α1b-AR (Homo sapiens, UniProt P35368).
T3 sequence (P35368 1-520): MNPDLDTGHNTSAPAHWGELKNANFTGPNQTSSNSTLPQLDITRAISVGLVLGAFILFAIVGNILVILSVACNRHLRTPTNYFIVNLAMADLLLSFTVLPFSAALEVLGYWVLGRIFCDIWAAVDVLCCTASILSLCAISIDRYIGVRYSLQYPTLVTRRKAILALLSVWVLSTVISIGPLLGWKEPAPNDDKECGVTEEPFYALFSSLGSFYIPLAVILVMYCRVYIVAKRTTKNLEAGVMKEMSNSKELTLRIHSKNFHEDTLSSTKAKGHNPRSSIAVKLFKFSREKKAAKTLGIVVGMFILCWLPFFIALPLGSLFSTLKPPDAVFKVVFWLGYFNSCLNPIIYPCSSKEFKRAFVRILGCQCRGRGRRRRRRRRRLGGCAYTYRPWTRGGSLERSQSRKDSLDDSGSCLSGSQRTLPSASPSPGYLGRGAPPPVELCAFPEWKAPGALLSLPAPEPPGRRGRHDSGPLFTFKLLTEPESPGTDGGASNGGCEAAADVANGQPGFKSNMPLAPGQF
The series is described as follows: α1-Adrenergic receptor radio-ligand (125I-HEAT) binding assay, α1b subtype. The settings on record: Receptor Binding, Ki α1b-AR, COS-7 cell membranes, 125I-HEAT.

For orientation: melting point means the temperature, or range, at which the solid turns liquid. As a reminder, the Ki is a dissociation constant, usually derived from enzyme kinetics or from competition with a known ligand.

Take `CCN([C@H]1CC[C@@H](N2CCN(c3ccccc3OC(C)C)CC2)CC1)S(=O)(=O)c1ccc(OC)c(OC)c1` (as salt: fumarate) [Cpd 67, N-Ethyl-N-cis-{4-[4-(2-isopropoxy-phenyl)-piperazin-1-yl]-cyclohexyl}-3,4-dimethoxy-benzenesulfonamide]: the melting point is 199 °C (dec.).

As to `CCN([C@H]1CC[C@H](N2CCN(c3ccccc3OC(C)C)CC2)CC1)S(=O)(=O)c1ccc(OC)c(OC)c1` (as salt: fumarate) [Cpd 68, N-Ethyl-N-trans-{4-[4-(2-isopropoxy-phenyl)-piperazin-1-yl]-cyclohexyl}-3,4-dimethoxy-benzenesulfonamide], the melting point is 186 °C (dec.).

With `CCN([C@H]1CC[C@H](N2CCN(c3ccccc3OC(C)C)CC2)CC1)S(=O)(=O)c1ccc(OC)c(OC)c1` [Cpd 68, N-Ethyl-N-trans-{4-[4-(2-isopropoxy-phenyl)-piperazin-1-yl]-cyclohexyl}-3,4-dimethoxy-benzenesulfonamide], the values for the inhibition constant Ki at α1a-AR, on α1d-AR and at α1b-AR were 23 nM, 6.7 nM and 109 nM, respectively.

For the compound `COc1ccc(S(=O)(=O)N[C@H]2CC[C@H](N3CCN(c4ccccc4OCC(F)(F)F)CC3)CC2)cc1OC` [Cpd 70], the inhibitory constant (Ki) at α1a-AR is 54.2 nM; on α1d-AR, 8.3 nM; on α1b-AR, 34.8 nM.

Take `COc1ccc(S(=O)(=O)N[C@H]2CC[C@@H](N3CCN(c4ccc(F)cc4OC(C)C)CC3)CC2)cc1OC` [Cpd 71, N-cis-{4-[4-(4-Fluoro-2-isopropoxy-phenyl)-piperazin-1-yl]-cyclohexyl}-3,4-dimethoxy-benzenesulfonamide]: the Ki on α1a-AR amounted to 14.9 nM; at α1d-AR, 5.9 nM; at α1b-AR, 711 nM.

In the case of `COc1ccc(S(=O)(=O)N[C@H]2CC[C@H](N3CCN(c4ccc(F)cc4OC(C)C)CC3)CC2)cc1OC` [Cpd 72, N-trans-{4-[4-(4-Fluoro-2-isopropoxy-phenyl)-piperazin-1-yl]-cyclohexyl}-3,4-dimethoxy-benzenesulfonamide], the inhibition constant Ki at α1a-AR was found to be 9 nM; at α1d-AR it was 12.2 nM; at α1b-AR it was 146 nM.

As for `COc1ccc(Cl)cc1S(=O)(=O)N[C@H]1CC[C@@H](N2CCN(c3ccc(F)cc3OC(C)C)CC2)CC1` [Cpd 73, 5-Chloro-N-cis-{4-[4-(4-fluoro-2-isopropoxy-phenyl)-piperazin-1-yl]-cyclohexyl}-2-methoxy-benzenesulfonamide], the results for the Ki at α1a-AR, on α1d-AR and at α1b-AR were 598 nM, 134 nM and 81 nM, respectively.

Consider `CC(C)Oc1cc(F)ccc1N1CCN([C@H]2CC[C@@H](NS(=O)(=O)c3cc(Cl)ccc3F)CC2)CC1` [Cpd 74, 5-Chloro-2-fluoro-N-cis-{4-[4-(4-fluoro-2-isopropoxy-phenyl)-piperazin-1-yl]-cyclohexyl}-benzenesulfonamide], for which the inhibitory constant (Ki) on α1a-AR is 5.6 nM; at α1d-AR, 2.2 nM; at α1b-AR, 101 nM.

As to `COc1ccc(S(=O)(=O)N[C@H]2CC[C@@H](N3CCN(c4ccc(F)cc4OCC(F)(F)F)CC3)CC2)cc1OC` [Cpd 75, N-cis-(4-{4-[4-Fluoro-2-(2,2,2-trifluoro-ethoxy)-phenyl]-piperazin-1-yl}-cyclohexyl)-3,4-dimethoxy-benzenesulfonamide], the figures for the inhibition constant Ki at α1a-AR, on α1d-AR and on α1b-AR were 13.9 nM, 5.2 nM and 176 nM, respectively.

Take `COc1ccc(Cl)cc1S(=O)(=O)N[C@H]1CC[C@@H](N2CCN(c3ccc(F)cc3OCC(F)(F)F)CC2)CC1` [Cpd 76, 5-Chloro-N-cis-(4-{4-[4-fluoro-2-(2,2,2-trifluoro-ethoxy)-phenyl]-piperazin-1-yl}-cyclohexyl)-2-methoxy-benzenesulfonamide]: the Ki on α1a-AR came to 17 nM; at α1d-AR it was 8.5 nM; on α1b-AR, 196 nM.

Turning to `O=S(=O)(N[C@H]1CC[C@@H](N2CCN(c3ccc(F)cc3OCC(F)(F)F)CC2)CC1)c1cc(Cl)ccc1F` [Cpd 77, 5-Chloro-2-fluoro-N-cis-(4-{4-[4-fluoro-2-(2,2,2-trifluoro-ethoxy)-phenyl]-piperazin-1-yl}-cyclohexyl)-benzenesulfonamide], the Ki was 43 nM on α1a-AR, 29 nM at α1d-AR and 206 nM on α1b-AR.

With `COc1ccc(Cl)cc1S(=O)(=O)N[C@H]1CC[C@H](N2CCN(c3ccc(F)cc3OC(C)C)CC2)CC1` [Cpd 78, 5-Chloro-N-trans-{4-[4-(4-fluoro-2-isopropoxy-phenyl)-piperazin-1-yl]-cyclohexyl}-2-methoxy-benzenesulfonamide], the inhibition constant Ki on α1a-AR turned out to be 340 nM; at α1d-AR, 47 nM; on α1b-AR, 44 nM.

With `CC(C)Oc1cc(F)ccc1N1CCN([C@H]2CC[C@H](NS(=O)(=O)c3cc(Cl)ccc3F)CC2)CC1` [Cpd 79, 5-Chloro-2-fluoro-N-trans-{4-[4-(4-fluoro-2-isopropoxy-phenyl)-piperazin-1-yl]-cyclohexyl}-benzenesulfonamide], the Ki on α1a-AR worked out at 5.4 nM; on α1d-AR it was 14 nM; at α1b-AR it was 107 nM.

Regarding `COc1ccc(S(=O)(=O)N[C@H]2CC[C@H](N3CCN(c4ccc(F)cc4OCC(F)(F)F)CC3)CC2)cc1OC` [Cpd 80, N-trans-(4-{4-[4-Fluoro-2-(2,2,2-trifluoro-ethoxy)-phenyl]-piperazin-1-yl}-cyclohexyl)-3,4-dimethoxy-benzenesulfonamide], the Ki on α1a-AR worked out at 21 nM; at α1d-AR, 38 nM; at α1b-AR, 87 nM.

Consider `COc1ccc(Cl)cc1S(=O)(=O)N[C@H]1CC[C@H](N2CCN(c3ccc(F)cc3OCC(F)(F)F)CC2)CC1` [Cpd 81, 5-Chloro-N-trans-(4-{4-[4-fluoro-2-(2,2,2-trifluoro-ethoxy)-phenyl]-piperazin-1-yl}-cyclohexyl)-2-methoxy-benzenesulfonamide], for which the inhibition constant (Ki) stood at 34 nM on α1a-AR, 51 nM on α1d-AR and 90 nM at α1b-AR.

As to `O=S(=O)(N[C@H]1CC[C@H](N2CCN(c3ccc(F)cc3OCC(F)(F)F)CC2)CC1)c1cc(Cl)ccc1F` [Cpd 82, 5-Chloro-2-fluoro-N-trans-(4-{4-[4-fluoro-2-(2,2,2-trifluoro-ethoxy)-phenyl]-piperazin-1-yl}-cyclohexyl)-benzenesulfonamide], the inhibition constant Ki at α1a-AR was 52 nM; at α1d-AR, 240 nM; on α1b-AR, 442 nM.

In the case of `COc1ccc(S(=O)(=O)N[C@H]2CC[C@@H](N3CCN(c4cc(F)ccc4OCC(F)(F)F)CC3)CC2)cc1OC` [Cpd 83, N-cis-(4-{4-[5-Fluoro-2-(2,2,2-trifluoro-ethoxy)-phenyl]-piperazin-1-yl}-cyclohexyl)-3,4-dimethoxy-benzenesulfonamide], the Ki at α1a-AR was 1.7 nM; at α1d-AR it was 0.58 nM; at α1b-AR it was 75 nM.

With `COc1ccc(S(=O)(=O)N[C@H]2CC[C@H](N3CCN(c4cc(F)ccc4OCC(F)(F)F)CC3)CC2)cc1OC` [Cpd 84, N-trans-(4-{4-[5-Fluoro-2-(2,2,2-trifluoro-ethoxy)-phenyl]-piperazin-1-yl}-cyclohexyl)-3,4-dimethoxy-benzenesulfonamide], the Ki came to 33 nM on α1a-AR, 36.1 nM on α1d-AR and 220 nM on α1b-AR.
